# According to patent US20150219624A1, “METHODS FOR IDENTIFYING ANTI-CANCER COMPOUNDS” (MEMORIAL SLOAN KETTERING CANCER CENTER, priority 2013, published 2015):
# System: KOPTK1 cells
# Test: Metabolic labeling of nascent protein with L-azidohomoalanine (AHA)
# Assay type: cell-based, human
# Conditions: 25 nM; p vs. vehicle 3.6×10−3
# Procedure: (Non-radioactive) Metabolic labeling of nascent protein. KOPTK1 cells were labeled for nascent protein synthesis using Click-iTR AHA (L-azidohomoalanine) metabolic labeling reagent obtained from Invitrogen (cat no. C10102) as per manufacturer's instructions. Briefly, following silvestrol, Cycloheximide or DMSO treated cells were incubated in methionine free medium for 30 min prior to AHA labeling for 1 hr. Cells were fixed with 4% paraformaldehyde in PBS for 15 min, permeablized with 0.25% Triton X-100 in PBS for 15 min followed by one wash with 3% BSA. Cells were then stained using Alexa Fluor 488 Alkyne (Invitrogen cat no. A10267) with Click-iT Cell reaction Buffer Kit (Invitrogen cat no. C10269). Changes in mean fluorescence intensity as a measure of newly synthesized protein was detected by Flow cytometry analysis.
# The number of ribosomes occupying a given transcript is given as gene specific RF reads per one million total reads (RPM).
# FIG. 10 depicts ribosome profiling quality control data and effects on translation. A and B) Read counts by length of mapped sequence before and after filtering rRNA, linker reads, non-coding RNAs, short mapped sequences (“noisy” reads; see text and method for details). C and D) Read length frequency histograms and mapping analysis of ribosome footprint data after quality control filtering for vehicle treated cells (C) or silvestrol treated cells (D). […]
smiles,measurement,value
COC(=O)[C@H]1[C@@H](O)[C@@]2(O)c3c(OC)cc(O[C@@H]4O[C@@H]([C@H](O)CO)CO[C@H]4OC)cc3O[C@@]2(c2ccc(OC)cc2)[C@@H]1c1ccccc1 [silvestrol],max. reduction of nascent protein synthesis (AHA labeling),~60%
